The values that follow come from the supplement of paper PMC10307832.

Holding throughout (assay): relative viability (nuclei count vs DMSO), 5 days (fraction); higher = more cells survive
Compound in assay [1]: Cn1c(=O)n(-c2ccc(C(C)(C)C#N)cc2)c2c3cc(-c4cnc5ccccc5c4)ccc3ncc21 [Dactolisib] + O=C(c1cc(Cc2n[nH]c(=O)c3ccccc23)ccc1F)N1CCN(C(=O)C2CC2)CC1 [Olaparib] (partner 8 µM)
Summed up: (§1)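 After 5 days of treatment, lung cancer cells in 1536-well plates were fixed and stained in a single step (final 0.05% Triton X-100, 1% formaldehyde, 1 ug/ml Hoechst) and their nuclei counted on 4× images. Treatment had been applied by pin tool the day after seeding as one drug alone or as a fixed anchor-drug dose with five library-drug doses (not always all listed) in √10 steps. Relative viability is the nuclei count of treated wells divided by that of vehicle wells, and values are medians of duplicate plates.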

Compound in assay [2]: C1CCC(CC1)N(CCNCCC2=C3C(=C(C=C2)O)NC(=O)CO3)C(=O)CCNCCC4=CC(=C(C=C4)Cl)Cl [AZ505] + O=C(c1cc(Cc2n[nH]c(=O)c3ccccc23)ccc1F)N1CCN(C(=O)C2CC2)CC1 [Olaparib] (partner 8 µM)
An outline of the steps:
as §1

Compound in assay [3]: C1CCC(CC1)N(CCNCCC2=C3C(=C(C=C2)O)NC(=O)CO3)C(=O)CCNCCC4=CC(=C(C=C4)Cl)Cl [AZ505] + CC1(C)CCC(c2ccc(Cl)cc2)=C(CN2CCN(c3ccc(C(=O)NS(=O)(=O)c4ccc(N[C@H](CCN5CCOCC5)CSc5ccccc5)c(S(=O)(=O)C(F)(F)F)c4)cc3)CC2)C1 [Navitoclax] (partner 0.5 µM)
An outline of the steps:
as §1

Compound in assay [4]: Cn1c(=O)n(-c2ccc(C(C)(C)C#N)cc2)c2c3cc(-c4cnc5ccccc5c4)ccc3ncc21 [Dactolisib] + C[C@@H](Oc1cc(-c2cnn(C3CCNCC3)c2)cnc1N)c1c(Cl)ccc(F)c1Cl [Crizotinib] (partner 1 µM)
An outline of the steps:
as §1

In the case of UMC-11, the relative viability in assay [1] (first compound 0.002 µM) was 0.36; in assay [1] (first compound 0.006325 µM) it was 0.317; in assay [1] (first compound 0.02 µM), 0.306; in assay [1] (first compound 0.06325 µM), 0.202; in assay [1] (first compound 0.2 µM), 0.193; in assay [2] (first compound 0.08 µM), 0.366. For the same cell line, the relative viability in assay [2] (first compound 0.253 µM) amounted to 0.372; in assay [2] (first compound 0.8 µM), 0.363; in assay [2] (first compound 2.53 µM) it was 0.383; in assay [2] (first compound 8 µM), 0.381; in assay [3] (first compound 0.08 µM), 0.26; in assay [3] (first compound 0.253 µM), 0.295. Moreover, the relative viability in assay [3] (first compound 0.8 µM) worked out at 0.327; in assay [3] (first compound 2.53 µM), 0.334; in assay [3] (first compound 8 µM), 0.373; in assay [4] (first compound 0.002 µM), 0.556; in assay [4] (first compound 0.006325 µM) it was 0.585; in assay [4] (first compound 0.02 µM) it was 0.403. The relative viability in assay [4] (first compound 0.06325 µM) stood at 0.275; in assay [4] (first compound 0.2 µM), 0.155.
